In patent publication US11834679B2, “Method for producing cardiomyocytes” (KATAOKA CORPORATION, priority 2018, dated 2023):

System: human fibroblasts
Test: Direct induction from human fibroblasts to cardiomyocytes (microscopic observation of morphology and pulsation)
Format: cell-based
Experimental: The human fibroblasts used as the material were purchased from DS Pharma Biomedical Co., Ltd. The fibroblasts are derived from human skin. The human fibroblasts were seeded in 8×10^4 portions in 35-mm dishes coated with gelatin (Cat #: 190-15805, manufactured by Wako Pure Chemical Co.) and cultured in DMEM high glucose medium (manufactured by Gibco) supplemented with 10% fetal bovine serum (Fetal bovine serum; FBS), 100 U/mL penicillin, and 100 μg/mL streptomycin for 2 days at 37° C. under 5% CO2 conditions (80-90% or more confluent). DMEM denotes Dulbecco's Modified Eagle Medium (Dulbecco's Modified Eagle Medium). The medium of dishes of the human fibroblasts described above was replaced with a medium of DMEM (High Glucose with L-Glutamine Phenol Red, and Sodium Pyruvate) (manufactured by Gibco) having 20% fetal bovine serum (FBS), 2% B27-supplement (manufactured by Gibco), 1% N2 (manufactured by Gibco), non-essential amino acids (NEAA: manufactured by Gibco), β-mercaptoethanol (manufactured by Nacalai Tesque; final concentration of 0.1 mmol/L), 2-phospho ascorbic acid (manufactured by Sigma-Aldrich; final concentration of 50 μg/mL), 100 U/mL penicillin, 100 μg/mL streptomycin, and low molecular weight compounds described below. […] This was assessed by observing cell clumps that contract spontaneously and periodically under a microscope. […]

## O=C(NOC[C@H](O)CO)c1ccc(F)c(F)c1Nc1ccc(I)cc1F [Ex. A, PD0325901]
Tables 1-2, FIGS. 1-6, culture day 7 to 17
  appearance of spontaneously contracting (myocardial) cell clumps: low in frequency
Human skin fibroblasts cultured with the compound combination, grades ⊚, ◯, Δ, X not defined
  Induction efficiency (Morphology, pulsation): Δ
